According to patent publication US12050224B2, “Compounds useful as near-infrared fluorescent probes selectively binding to tau aggregates and method of preparing the same” (KOREA INSTITUTE OF SCIENCE AND TECHNOLOGY, priority 2020, dated 2024):

How the values were obtained:
[1] = Measurement of absorbance and fluorescence of synthesized compound in ethanol; type: physicochemical; conditions: 10 μM in ethanol; for λem: Maximum emission wavelength / λex: Maximum excitation wavelength: average of three measurements; for Stokes shift: difference between excitation and emission
Description: In order to investigate the optical properties of the newly synthesized compound in the present invention, the absorbance was measured using a V-730 UV-visible spectrophotometer manufactured by JASCO, and fluorescence was measured using a FlexStation 3 multi-mode microplate reader manufactured by Molecular Devices. Absorbance and fluorescence were measured three times at a concentration of 10 μM in ethanol, and the average thereof is shown in Table 1 below. At this time, T807 (AV-1451) as a Tau positron-emission-tomography (PET) tracer and Thioflavin S, which are commercially available to detect tau production in vivo, were used as a control group.

[2] = biological target: T1, amyloid beta aggregates (Abeta40) (Homo sapiens, UniProt P05067); test: In vitro binding assay (fluorescence labeling ability) to amyloid beta aggregates; conditions: compound 10 μM, PBS, 30 min incubation
T1 construct: the synthesized Abeta40 (Amyloid Beta 40) peptide was dissolved in PBS; host or cells: synthetic peptide
Description: (§1) Experimental Example 2-1: Tau and amyloid beta aggregation induction For amyloid aggregation induction, the synthesized Abeta40 (Amyloid Beta 40) peptide was dissolved in PBS at a concentration of 0.5 mg/ml to induce aggregation for 7 days at 37° C. and 200 rpm with shaking. To induce aggregation of tau proteins, aggregation of Tau-K18 protein (0.5 mg/ml in PBS) purified and isolated from E. coli with heparin (0.1 mg/ml) and DTT (100 μM) was induced at 37° C. and 200 rpm for 7 days under shaking conditions. […] At this time, thioflavin S (Th S), which is known to bind to beta-sheet structures such as tau and amyloid aggregates, was used as a control group (Ex: 430 nm, Em: 480-610 nm). Specifically, in order to determine the labeling ability of newly synthesized compounds to tau aggregate proteins, a 25 μl dilution of a 10 μM labeling substance in PBS and 25 id of a 0.125 mg/ml tau or amyloid pre-aggregate or aggregate diluted in PBS were each incubated for 30 minutes, and then a fluorescence spectrum reaction was measured using a spectrophotometer. Selectivity analysis for tau aggregates and amyloid beta aggregates of the novel synthetic compounds of the present invention was performed as described above, and the resulting in vitro fluorescence changes are summarized in Table 2 and FIG. 1 below.

[3] = biological target: bovine serum albumin (BSA) (Bos taurus, UniProt P02769); test: Measurement of non-specific binding using BSA; conditions: for FIBSA: fold increase = fluorescence intensity of probe bound to BSA / probe (free): compound 10 μM, 0.25 mg/ml BSA, 30 min incubation
Description: In order to exclude non-specific binding of the compound to serum, reactivity between the compound and bovine serum albumin (BSA) was further tested. 25 μl of a 10 μM compound was incubated along with 25 μl of 0.25 mg/ml BSA for 30 minutes, and then the fluorescence spectrum reaction was measured using a spectrophotometer. The BSA response was conducted to identify non-selective binding to other proteins in the blood when applied to patients as an imaging agent.

[4] = biological target: T2, tau aggregates (Tau-K18 protein) (Homo sapiens, UniProt P10636); test: In vitro binding assay (fluorescence labeling ability) to tau aggregates; conditions: for SIaβ: selectivity index = fluorescence intensity of probe bound to Tau aggregate / bound to Aβ aggregate / SItaumono: selectivity index, tau aggregate versus tau monomer / FItau: fold increase = fluorescence intensity of probe bound to tau aggregate / probe (free): compound 10 μM; for FItau: fold increase = fluorescence intensity of probe bound to tau aggregate / probe (free): PBS, 30 min incubation; for selectivity for tau aggregates over amyloid aggregates: in vitro screening as fluorescent probes
T2 construct: aggregation of Tau-K18 protein (0.5 mg/ml in PBS) purified and isolated from E. coli; made in house; host or cells: E. coli
Description: as §1

T1 sequence (P05067 672-711 limits assumed): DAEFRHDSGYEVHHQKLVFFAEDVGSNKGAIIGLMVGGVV
bovine serum albumin (BSA), sequence (P02769 25-607): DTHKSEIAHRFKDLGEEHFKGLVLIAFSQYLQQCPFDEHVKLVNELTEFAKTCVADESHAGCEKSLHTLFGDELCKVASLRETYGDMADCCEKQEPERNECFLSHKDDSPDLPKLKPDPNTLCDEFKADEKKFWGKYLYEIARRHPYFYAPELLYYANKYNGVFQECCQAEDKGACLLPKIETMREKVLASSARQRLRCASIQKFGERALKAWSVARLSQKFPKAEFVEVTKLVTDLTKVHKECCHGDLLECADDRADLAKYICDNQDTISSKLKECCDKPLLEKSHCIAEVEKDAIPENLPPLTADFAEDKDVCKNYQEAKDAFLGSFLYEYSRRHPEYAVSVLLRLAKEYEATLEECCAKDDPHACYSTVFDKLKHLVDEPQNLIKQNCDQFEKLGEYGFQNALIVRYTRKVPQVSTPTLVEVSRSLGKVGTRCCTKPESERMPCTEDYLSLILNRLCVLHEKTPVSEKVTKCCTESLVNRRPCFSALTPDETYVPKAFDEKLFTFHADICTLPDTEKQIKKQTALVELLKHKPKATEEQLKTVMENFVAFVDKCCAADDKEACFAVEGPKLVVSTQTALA
T2 sequence (P10636 561-685 limits assumed): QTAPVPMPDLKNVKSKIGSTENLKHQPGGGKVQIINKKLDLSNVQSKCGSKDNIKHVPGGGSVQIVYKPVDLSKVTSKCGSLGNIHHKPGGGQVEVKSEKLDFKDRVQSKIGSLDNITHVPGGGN

COc1ccc2nc(/C=C/C(=O)c3ccc(C)cc3)ccc2c1 [Compound 13d, (E)-1-(4-tolyl)-3-(6-methoxyquinolin-2-yl)prop-2-en-1-one]
λem: Maximum emission wavelength [1]: 454 nm
λex: Maximum excitation wavelength [1]: 314 nm
Stokes shift [1]: 140 nm
FIAβ: fold increase = fluorescence intensity of probe bound to Aβ aggregate / probe (free) [2]: 1.88
FIBSA: fold increase = fluorescence intensity of probe bound to BSA / probe (free) [3]: 1.57
SIaβ: selectivity index = fluorescence intensity of probe bound to Tau aggregate / bound to Aβ aggregate [4]: 3.2
SItaumono: selectivity index, tau aggregate versus tau monomer [4]: 4.8
FItau: fold increase = fluorescence intensity of probe bound to tau aggregate / probe (free) [4]: 6.05

COc1ccc2nc(C(=O)/C=C/C=C/c3ccc(N(C)C)cc3)ccc2c1 [Compound 16c, (2E,4E)-5-(4-(dimethylamino)phenyl)-1-(6-methoxyquinolin-2-yl)penta-2,4-dien-1-one]
λem: Maximum emission wavelength [1]: 678 nm
λex: Maximum excitation wavelength [1]: 450 nm
Stokes shift [1]: 228 nm
FIAβ: fold increase = fluorescence intensity of probe bound to Aβ aggregate / probe (free) [2]: 1.43
FIBSA: fold increase = fluorescence intensity of probe bound to BSA / probe (free) [3]: 1.29
SIaβ: selectivity index = fluorescence intensity of probe bound to Tau aggregate / bound to Aβ aggregate [4]: 1.2
SItaumono: selectivity index, tau aggregate versus tau monomer [4]: 1.7
FItau: fold increase = fluorescence intensity of probe bound to tau aggregate / probe (free) [4]: 1.71

COc1ccc2nc(/C=C/C=C/c3ccc(N(C)C)nc3)ccc2c1 [Compound 15d, 5-((1E,3E)-4-(6-methoxyquinolin-2-yl)buta-1,3-dien-1-yl)-N,N-dimethylpyridin-2-amine]
λem: Maximum emission wavelength [1]: 520 nm
λex: Maximum excitation wavelength [1]: 402 nm
Stokes shift [1]: 118 nm
FIAβ: fold increase = fluorescence intensity of probe bound to Aβ aggregate / probe (free) [2]: 1.25
FIBSA: fold increase = fluorescence intensity of probe bound to BSA / probe (free) [3]: 1.05
SIaβ: selectivity index = fluorescence intensity of probe bound to Tau aggregate / bound to Aβ aggregate [4]: 1.1
SItaumono: selectivity index, tau aggregate versus tau monomer [4]: 1.3
FItau: fold increase = fluorescence intensity of probe bound to tau aggregate / probe (free) [4]: 1.33

COc1ccc2nc(/C=C/C=C/c3cccc([N+](=O)[O-])c3)ccc2c1 [Compound 15g, 6-methoxy-2-((1E,3E)-4-(3-nitrophenyl)buta-1,3-dien-1-yl)quinolone]
λem: Maximum emission wavelength [1]: 452 nm
λex: Maximum excitation wavelength [1]: 361 nm
Stokes shift [1]: 91 nm
FIAβ: fold increase = fluorescence intensity of probe bound to Aβ aggregate / probe (free) [2]: 0.58
FIBSA: fold increase = fluorescence intensity of probe bound to BSA / probe (free) [3]: 1.33
SIaβ: selectivity index = fluorescence intensity of probe bound to Tau aggregate / bound to Aβ aggregate [4]: 5.8
SItaumono: selectivity index, tau aggregate versus tau monomer [4]: 3.7
FItau: fold increase = fluorescence intensity of probe bound to tau aggregate / probe (free) [4]: 3.42
selectivity for tau aggregates over amyloid aggregates [4]: 5.8 times

COc1ccc2nc(/C=C/c3ccc(C(F)(F)F)cc3)ccc2c1 [Compound 14a, (E)-6-methoxy-2-(4-(trifluoromethyl)styryl)quinolone]
λem: Maximum emission wavelength [1]: 415 nm
λex: Maximum excitation wavelength [1]: 359 nm
Stokes shift [1]: 56 nm
FIAβ: fold increase = fluorescence intensity of probe bound to Aβ aggregate / probe (free) [2]: 0.54
FIBSA: fold increase = fluorescence intensity of probe bound to BSA / probe (free) [3]: 0.60
SIaβ: selectivity index = fluorescence intensity of probe bound to Tau aggregate / bound to Aβ aggregate [4]: 1.9
SItaumono: selectivity index, tau aggregate versus tau monomer [4]: 2.0
FItau: fold increase = fluorescence intensity of probe bound to tau aggregate / probe (free) [4]: 1.01

COc1ccc2nc(C(=O)/C=C/C=C/c3ccc(N(C)C)nc3)ccc2c1 [Compound 16d, (2E,4E)-5-(6-(dimethylamino)pyridin-3-yl)-1-(6-methoxyquinolin-2-yl)penta-2,4-dien-1-one]
λem: Maximum emission wavelength [1]: 637 nm
λex: Maximum excitation wavelength [1]: 425 nm
Stokes shift [1]: 212 nm
FIAβ: fold increase = fluorescence intensity of probe bound to Aβ aggregate / probe (free) [2]: 1.10
FIBSA: fold increase = fluorescence intensity of probe bound to BSA / probe (free) [3]: 1.26
SIaβ: selectivity index = fluorescence intensity of probe bound to Tau aggregate / bound to Aβ aggregate [4]: 3.5
SItaumono: selectivity index, tau aggregate versus tau monomer [4]: 3.9
FItau: fold increase = fluorescence intensity of probe bound to tau aggregate / probe (free) [4]: 3.82
selectivity for tau aggregates over amyloid aggregates [4]: 3.5 times

COc1ccc2nc(/C=C/C=C/c3ccc(N(C)C)cc3)ccc2c1 [Compound 15c, 4-((1E,3E)-4-(6-methoxyquinolin-2-yl)buta-1,3-dien-1-yl)-N,N-dimethylaniline]
λem: Maximum emission wavelength [1]: 600 nm
λex: Maximum excitation wavelength [1]: 399 nm
Stokes shift [1]: 201 nm
FIAβ: fold increase = fluorescence intensity of probe bound to Aβ aggregate / probe (free) [2]: 0.18
FIBSA: fold increase = fluorescence intensity of probe bound to BSA / probe (free) [3]: 0.19
SIaβ: selectivity index = fluorescence intensity of probe bound to Tau aggregate / bound to Aβ aggregate [4]: 1.2
SItaumono: selectivity index, tau aggregate versus tau monomer [4]: 3.9
FItau: fold increase = fluorescence intensity of probe bound to tau aggregate / probe (free) [4]: 0.81

Thioflavin S [reference compound]
λem: Maximum emission wavelength [1]: 451 nm
λex: Maximum excitation wavelength [1]: 347 nm
Stokes shift [1]: 104 nm
FIAβ: fold increase = fluorescence intensity of probe bound to Aβ aggregate / probe (free) [2]: 19.95
FIBSA: fold increase = fluorescence intensity of probe bound to BSA / probe (free) [3]: 7.133
reactivity to BSA ([3]; in words): high reactivity
SIaβ: selectivity index = fluorescence intensity of probe bound to Tau aggregate / bound to Aβ aggregate [4]: 0.8
SItaumono: selectivity index, tau aggregate versus tau monomer [4]: 4.3
FItau: fold increase = fluorescence intensity of probe bound to tau aggregate / probe (free) [4]: 15.32

COc1ccc2nc(/C=C/C(=O)c3ccc(Br)cc3)ccc2c1 [Compound 13e, (E)-1-(4-bromophenyl)-3-(6-methoxyquinolin-2-yl)prop-2-en-1-one]
λem: Maximum emission wavelength [1]: 415 nm
λex: Maximum excitation wavelength [1]: 314 nm
Stokes shift [1]: 101 nm
FIAβ: fold increase = fluorescence intensity of probe bound to Aβ aggregate / probe (free) [2]: 1.37
FIBSA: fold increase = fluorescence intensity of probe bound to BSA / probe (free) [3]: 1.39
SIaβ: selectivity index = fluorescence intensity of probe bound to Tau aggregate / bound to Aβ aggregate [4]: 3.8
SItaumono: selectivity index, tau aggregate versus tau monomer [4]: 2.2
FItau: fold increase = fluorescence intensity of probe bound to tau aggregate / probe (free) [4]: 5.18
selectivity for tau aggregates over amyloid aggregates [4]: 3.8 times

COc1ccc2nc(C(=O)/C=C/C=C/c3ccc(N(C)CCO)cc3)ccc2c1 [Compound 16e]
λem: Maximum emission wavelength [1]: 658 nm
λex: Maximum excitation wavelength [1]: 436 nm
Stokes shift [1]: 222 nm
FIAβ: fold increase = fluorescence intensity of probe bound to Aβ aggregate / probe (free) [2]: 1.55
FIBSA: fold increase = fluorescence intensity of probe bound to BSA / probe (free) [3]: 1.59
SIaβ: selectivity index = fluorescence intensity of probe bound to Tau aggregate / bound to Aβ aggregate [4]: 2.5
SItaumono: selectivity index, tau aggregate versus tau monomer [4]: 3.0
FItau: fold increase = fluorescence intensity of probe bound to tau aggregate / probe (free) [4]: 3.90

COc1ccc2nc(/C=C/c3ccncc3)ccc2c1 [Compound 14b, (E)-6-methoxy-2-(2-(pyridin-4-yl)vinyl)quinolone]
λem: Maximum emission wavelength [1]: 420 nm
λex: Maximum excitation wavelength [1]: 357 nm
Stokes shift [1]: 63 nm
FIAβ: fold increase = fluorescence intensity of probe bound to Aβ aggregate / probe (free) [2]: 0.57
FIBSA: fold increase = fluorescence intensity of probe bound to BSA / probe (free) [3]: 0.61
SIaβ: selectivity index = fluorescence intensity of probe bound to Tau aggregate / bound to Aβ aggregate [4]: 1.4
SItaumono: selectivity index, tau aggregate versus tau monomer [4]: 1.3
FItau: fold increase = fluorescence intensity of probe bound to tau aggregate / probe (free) [4]: 0.79

Fc1ccc(-c2ccc3c(c2)[nH]c2ccncc23)cn1 [Compound T807, reference compound]
λem: Maximum emission wavelength [1]: 369 nm
λex: Maximum excitation wavelength [1]: 304 nm
Stokes shift [1]: 65 nm
